Publication PMC10489651, “Six New Phenolic Glycosides from the Seeds of Moringa oleifera Lam. and Their α-Glucosidase Inhibitory Activity” (Molecules, 2023)

Target: α-glucosidase
Assay: colorimetric α-glucosidase inhibition assay (p-nitrophenyl glucopyranoside substrate, […] nm)
Format: biochemical

| IC50 [µM] | SMILES |
| --- | --- |
| 301 ± 6.22 | C[C@@H]1O[C@@H](Oc2ccc(C/C(=N/OS(=O)(=O)O)S[C@@H]3O[C@H](CO)[C@@H](O)[C@H](O)[C@H]3O)cc2)[C@H](O)[C@H](O)[C@H]1O [compound 16, glucomoringin] |
| 382.8 ± 1.42 | C[C@@H]1O[C@@H](Oc2ccc(Cc3cc(CC#N)ccc3O)cc2)[C@H](O)[C@H](O)[C@H]1O [compound 4, 4-(α-L-rhamnopyranosyl) benzyl-1′-hydroxy-4′-phenylacetonitrile] |
